What was measured:
Jurkat clone E6-1 cells = assay: Cell cytotoxicity assay Jurkat (CellTiter-Glo, 72 hours); assay type: cell-based; conditions: Table 3; 72 hours, top concentration of 50 μM; read-out: Cytotox Jurkat EC50
Outline: (§1)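 HEK-293T or Jurkat E6-1 cells plated at 450 cells/well were treated the next day with a 10-point titration from 50 μM top (0.5% DMSO final). After 72 h at 37° C, viability was read by CellTiter-Glo luminescence.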

[1] = target: Recombinant human JAK2 kinase domain protein (Residues 812-1132) (Homo sapiens, UniProt O60674); assay: JAK2 biochemical assay (microfluidic mobility shift, peptide phosphorylation); conditions: Enzyme JAK2 Ki (nM), 25 μM ATP, 0.2 nM total JAK2
[2] = test system: JAK1 pathway: P-STAT6 in TF-1 human erythroleukemia cells + IL-13; assay: P-STAT6 TF-1+Interleukin-13 (IL-13) assay; assay type: cell-based; conditions: Homo sapiens, TF-1, TF-1 cells, IL-13 stimulation; read-out: Cellular JAK1 PSTAT6 TF-1 + IL13 IC50
[3] = test system: JAK2 pathway: P-STAT5 in TF-1 human erythroleukemia cells + EPO; assay: P-STAT5 TF-1+Erythropoietin (EPO) assay; assay type: cell-based; conditions: Homo sapiens, TF-1, TF-1 cells, EPO stimulation; read-out: Cellular JAK2 PSTAT5 TF-l + EPO IC50
[4] = Cell cytotoxicity assay HEK-293T (CellTiter-Glo, 72 hours); assay type: cell-based; conditions: human, HEK-293T cells, Table 3; 72 hours, top concentration of 50 μM; read-out: Cytotox K-293 EC50
Outline: as §1

[5] = Cell cytotoxicity assay Jurkat (CellTiter-Glo, 72 hours); assay type: cell-based; conditions: human, Jurkat clone E6-1 cells, Table 3; 72 hours, top concentration of 50 μM; read-out: Cytotox Jurkat EC50
Outline: as §1

[6] = Cell cytotoxicity assay A549 (CellTiter-Glo, 72 hours); assay type: cell-based; conditions: human, A549 cells, Table 3; 72 hours, top concentration of 50 μM; read-out: Cytotox A549 EC50
Outline: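 A549 cells were plated overnight, then exposed for 72 h at 37 °C to a 10-point compound titration (top 50 μM, 0.5% DMSO final). Viability was read as CellTiter-Glo luminescence after 20 min at room temperature.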

Recombinant human JAK2 kinase domain protein (Residues 812-1132), sequence (O60674 812-1132): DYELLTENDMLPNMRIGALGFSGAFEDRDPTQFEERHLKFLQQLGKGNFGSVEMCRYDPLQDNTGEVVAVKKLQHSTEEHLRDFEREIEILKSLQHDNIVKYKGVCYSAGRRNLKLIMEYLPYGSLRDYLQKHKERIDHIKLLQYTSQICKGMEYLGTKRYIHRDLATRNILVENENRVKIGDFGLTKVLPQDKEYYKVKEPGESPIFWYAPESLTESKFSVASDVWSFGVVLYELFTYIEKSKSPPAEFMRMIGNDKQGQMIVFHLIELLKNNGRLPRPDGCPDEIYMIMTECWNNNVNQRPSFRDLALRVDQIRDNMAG

Ki [1] [nM]	IC50 [2] [nM]	IC50 [3] [nM]	SMILES	EC50 (Jurkat clone E6-1 cells) [nM]	EC50 at 72 h [4] [nM]	EC50 at 72 h [5] [nM]	EC50 at 72 h [6] [nM]
0.19			CC(CO)S(=O)(=O)c1ccc(OC(F)F)c(-c2nn(C)cc2NC(=O)c2cnn3cccnc23)c1 (single isomer, unassigned) [Example 24, N-[3-[2-(difluoromethoxy)-5-(2-hydroxy-1-methyl-ethyl)sulfonyl-phenyl]-1-methyl-pyrazol-4-yl]pyrazolo[1,5-a]pyrimidine-3-carboxamide]	37000			
0.087	27	61	Cn1cc(NC(=O)c2cnn3cccnc23)c(-c2cc3c(cc2OC(F)F)NCCS3(=O)=O)n1 [Example 46, N-[3-[6-(difluoromethoxy)-1,1-dioxo-3,4-dihydro-2H-1lambda6,4-benzothiazin-7-yl]-1-methyl-pyrazol-4-yl]pyrazolo[1,5-a]pyrimidine-3-carboxamide]		≥ 50000	≥ 50000	≥ 50000
0.19	4.6	14	Cn1cc(NC(=O)c2cnn3cccnc23)c(-c2cc(S(=O)(=O)C3CC3)ccc2OC(F)F)n1 [Example 22, N-[3-[5-cyclopropylsulfonyl-2-(difluoromethoxy)phenyl]-1-methyl-pyrazol-4-yl]pyrazolo[1,5-a]pyrimidine-3-carboxamide]		43000	≥ 50000	≥ 50000
0.19	34	28	Cn1cc(NC(=O)c2cnn3cccnc23)c(-c2cc(S(=O)(=O)C3COC3)ccc2OC(F)F)n1 [Example 13, N-[3-[2-(difluoromethoxy)-5-(oxetan-3-ylsulfonyl)phenyl]-1-methyl-pyrazol-4-yl]pyrazolo[1,5-a]pyrimidine-3-carboxamide]		31000	≥ 50000	44000
0.37	20	34	CN(C)CCn1cc(S(=O)(=O)c2ccc(OC(F)F)c(-c3nn(C)cc3NC(=O)c3cnn4cccnc34)c2)cn1 [Example 49, N-[3-[2-(difluoromethoxy)-5-[1-[2-(dimethylamino)ethyl]pyrazol-4-yl]sulfonyl-phenyl]-1-methyl-pyrazol-4-yl]pyrazolo[1,5-a]pyrimidine-3-carboxamide]		14000	24000	33000
0.35	10	38	N#CCn1cc(NC(=O)c2cnn3cccnc23)c(-c2cc(S(=O)(=O)C3CC3)ccc2OC(F)F)n1 [Example 45, N-[1-(cyanomethyl)-3-[5-cyclopropylsulfonyl-2-(difluoromethoxy)phenyl]pyrazol-4-yl]pyrazolo[1,5-a]pyrimidine-3-carboxamide]		≥ 50000	≥ 50000	≥ 50000
